Bridge positions count the residues as written; N and C are the ends. Square brackets hold non-standard residues; d marks the D form. Peptide text beside a SMILES is read from it. hArg = N=C(N)NCCCC[C@H](N)C(=O)O; Ac6c = NC1(C(=O)O)CCCCC1; Ac5c = NC1(C(=O)O)CCCC1; Nva = CCC[C@H](N)C(=O)O; Abu = CC[C@H](N)C(=O)O; Aib = CC(C)(N)C(=O)O
Target: T1, Saos-2 PTH1R (Homo sapiens, UniProt Q03431)
T1 construct: endogenous in cells; host or cells: Saos-2
T1 sequence (Q03431 27-593): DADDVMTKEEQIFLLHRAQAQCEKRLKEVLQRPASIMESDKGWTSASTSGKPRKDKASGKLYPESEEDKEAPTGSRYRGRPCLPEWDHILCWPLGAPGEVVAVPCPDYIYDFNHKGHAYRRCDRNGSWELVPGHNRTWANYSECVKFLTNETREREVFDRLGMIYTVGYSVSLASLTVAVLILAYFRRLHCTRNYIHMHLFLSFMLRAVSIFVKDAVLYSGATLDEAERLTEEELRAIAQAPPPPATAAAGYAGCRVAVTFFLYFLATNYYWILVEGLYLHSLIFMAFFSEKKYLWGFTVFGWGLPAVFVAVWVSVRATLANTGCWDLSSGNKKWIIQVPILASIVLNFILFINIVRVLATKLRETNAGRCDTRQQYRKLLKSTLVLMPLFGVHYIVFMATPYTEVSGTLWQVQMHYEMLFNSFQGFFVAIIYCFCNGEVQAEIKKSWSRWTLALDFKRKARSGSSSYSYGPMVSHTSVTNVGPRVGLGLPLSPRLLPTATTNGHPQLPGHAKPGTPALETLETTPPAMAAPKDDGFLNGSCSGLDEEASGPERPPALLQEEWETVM
Experiment: cAMP-efficacy assay in Saos-2 cells
Type: cell-based
Conditions: for EC50: cAMP, 100 μM IBMX, 37° C. 15 min, suffix of label = salt tested; for Emax ± SEM: relative effect to the control (SEQ ID NO: 32)
Method: Peptides were dissolved in phosphate buffered saline and further diluted in Tyrode's buffer (TB, Sigma-Aldrich) containing 0.1% BSA and 100 μM isobutyl-methyl-xanthine (IBMX, Sigma-Aldrich). Saos-2 cells were seeded at 50,000 cells/well in 96-microtiter plates and grown for two days before the efficacy assays. On the day of analysis, the growth medium was carefully removed by suction. Cells were washed once with 200 μl TB/0.1% BSA. The buffer was replaced with 100 μl reaction mixture (±test peptide), and incubated at 37° C. for 15 min. The reaction was stopped by addition of 25 μl of ice-cold 0.5 M HCl. Cells were in the following incubated on ice for 60 min. 75 μl acetate-buffer, pH6.2, was added to each well of a 96-well cAMP FlashPlate (Perkin-Elmer). […] FlashPlates were incubated overnight at 4° C., emptied by suction and counted in a TopCounter (Packard).
Determinations were performed in single determinations or triplicates at all doses. […] Standards were included as single determinations, duplicates or triplicates in each experiment, preferentially on each plate.
Concentration-dependent cAMP responses were imported into GraphPad Prism vers. 4 (GraphPad Software), transformed and plotted. […] Thus, a four-parameter logistic equation was used for determination of the EC50 values. Curves were fitted with a function for sigmoidal dose response curve (variable slope) non-linear fit Y=Bottom+(Top-Bottom)/(1+10̂((LogEC50−X)*HillSlope)) where X is the logarithm of concentration and Y is the response. Y starts at Bottom and goes to Top with a sigmoid shape. pEC50, Hill-coefficient and the maximally inducible concentration of cAMP (Emax) were evaluated.
Overall statistical differences were analyzed with Statistica (Statsoft) using one-way ANOVA. Post-hoc comparisons were made by the use of Fisher's Least Significance Test. Results were considered significant, when p was lower than 0.05.

SMILES	EC50 [nM]	Emax ± SEM
CC[C@H](C)[C@H](NC(=O)[C@H](CCC(=O)O)NC(=O)C(C)(C)NC(=O)[C@@H](NC(=O)C1(N)CCCC1)C(C)C)C(=O)N[C@@H](CCC(N)=O)C(=O)N[C@@H](CC(C)C)C(=O)N[C@@H](CCSC)C(=O)N[C@@H](Cc1c[nH]cn1)C(=O)N[C@@H](CCC(N)=O)C(=O)N[C@@H](CCCCNC(=N)N)C(=O)N[C@@H](C)C(=O)N[C@H]1CCCCNC(=O)C[C@@H](C(N)=O)NC(=O)[C@H](CC(N)=O)NC(=O)[C@H](CC(C)C)NC(=O)[C@H](Cc2c[nH]c3ccccc23)NC1=O [2A, H-Ac5c-Val-Aib-Glu-Ile-Gln-Leu-Met-His-Gln-Har-Ala-Lys( )Trp-Leu-Asn-Asp( )-NH2] (H-[Ac5c]V[Aib]EIQLMHQ[hArg]AKWLND-NH2; lactam 13-17)	6.31	0.99 ± 0.03
CC[C@H](C)[C@H](NC(=O)[C@H](CCC(=O)O)NC(=O)C(C)(C)NC(=O)[C@@H](NC(=O)C1(N)CCCC1)C(C)C)C(=O)N[C@@H](CCC(N)=O)C(=O)N[C@@H](CC(C)C)C(=O)N[C@@H](CCSC)C(=O)N[C@@H](Cc1c[nH]cn1)C(=O)N[C@@H](CCC(N)=O)C(=O)N[C@@H](CCCCNC(=N)N)C(=O)N[C@@H](C)C(=O)N[C@H]1CCCCNC(=O)C[C@@H](C(N)=O)NC(=O)[C@H](CC(N)=O)NC(=O)[C@H](CC(C)C)NC(=O)[C@H](Cc2c[nH]c3ccccc23)NC1=O [2C, H-Ac5c-Val-Aib-Glu-Ile-Gln-Leu-Met-His-Gln-Har-Ala-Lys( )Trp-Leu-Asn-Asp( )-NH2] (H-[Ac5c]V[Aib]EIQLMHQ[hArg]AKWLND-NH2; lactam 13-17)	6.61	0.94 ± 0.03
CC[C@H](C)[C@H](NC(=O)[C@H](CCC(=O)O)NC(=O)C(C)(C)NC(=O)[C@@H](NC(=O)C1(N)CCCC1)C(C)C)C(=O)N[C@@H](CCC(N)=O)C(=O)N[C@@H](CC(C)C)C(=O)N[C@@H](CCSC)C(=O)N[C@@H](Cc1c[nH]cn1)C(=O)N[C@@H](CCC(N)=O)C(=O)N[C@@H](CCCCNC(=N)N)C(=O)N[C@@H](C)C(=O)N[C@H]1CCCCNC(=O)C[C@@H](C(N)=O)NC(=O)[C@H](CC(N)=O)NC(=O)[C@H](CC(C)C)NC(=O)[C@H](Cc2c[nH]c3ccccc23)NC1=O [2T, H-Ac5c-Val-Aib-Glu-Ile-Gln-Leu-Met-His-Gln-Har-Ala-Lys( )Trp-Leu-Asn-Asp( )-NH2] (H-[Ac5c]V[Aib]EIQLMHQ[hArg]AKWLND-NH2; lactam 13-17)	6.61	0.70 ± 0.09
CC[C@H](C)[C@H](NC(=O)[C@H](CCC(=O)O)NC(=O)C(C)(C)NC(=O)[C@@H](NC(=O)C1(N)CCCC1)C(C)C)C(=O)N[C@@H](CCC(N)=O)C(=O)N[C@@H](CC(C)C)C(=O)N[C@@H](CC(C)C)C(=O)N[C@@H](Cc1c[nH]cn1)C(=O)N[C@@H](CCC(N)=O)C(=O)N[C@@H](CCCCNC(=N)N)C(=O)N[C@@H](C)C(=O)N[C@H]1CCCCNC(=O)C[C@@H](C(=O)O)NC(=O)[C@H](CC(N)=O)NC(=O)[C@H](CC(C)C)NC(=O)[C@H](Cc2c[nH]c3ccccc23)NC1=O [SEQ ID NO: 5, H-Ac5c-Val-Aib-Glu-Ile-Gln-Leu-Leu-His-Gln-Har-Ala-Lys( )-Trp-Leu-Asn-Asp( )-OH] (H-[Ac5c]V[Aib]EIQLLHQ[hArg]AKWLND-OH; lactam 13-17)	72.4	1.16 ± 0.12
CC[C@H](C)[C@H](NC(=O)[C@H](CCC(=O)O)NC(=O)C(C)(C)NC(=O)[C@@H](NC(=O)C1(N)CCCC1)C(C)C)C(=O)N[C@@H](CCC(N)=O)C(=O)N[C@@H](CC(C)C)C(=O)N[C@@H](CCSC)C(=O)N[C@@H](Cc1c[nH]cn1)C(=O)N[C@@H](CCC(N)=O)C(=O)N[C@@H](CCCCNC(=N)N)C(=O)N[C@@H](C)C(=O)N[C@H]1CC(=O)NCCCC[C@@H](C(N)=O)NC(=O)[C@H](CC(N)=O)NC(=O)[C@H](CC(C)C)NC(=O)[C@H](Cc2c[nH]c3ccccc23)NC1=O [SEQ ID NO: 6, H-Ac5c-Val-Aib-Glu-Ile-Gln-Leu-Met-His-Gln-Har-Ala-Asp( )-Trp-Leu-Asn-Lys( )-NH2] (H-[Ac5c]V[Aib]EIQLMHQ[hArg]ADWLNK-NH2; lactam 13-17)	126	1.5
CC[C@H](C)[C@H](NC(=O)[C@H](CCC(=O)O)NC(=O)C(C)(C)NC(=O)[C@@H](NC(=O)C1(N)CCCCC1)C(C)C)C(=O)N[C@@H](CCC(N)=O)C(=O)N[C@@H](CC(C)C)C(=O)N[C@@H](CC(C)C)C(=O)N[C@@H](Cc1c[nH]cn1)C(=O)N[C@@H](CCC(N)=O)C(=O)N[C@@H](CCCCNC(=N)N)C(=O)N[C@@H](C)C(=O)N[C@H]1CCCCNC(=O)C[C@@H](C(N)=O)NC(=O)[C@H](CC(N)=O)NC(=O)[C@H](CC(C)C)NC(=O)[C@H](Cc2c[nH]c3ccccc23)NC1=O [SEQ ID NO: 10, H-Ac6c-Val-Aib-Glu-Ile-Gln-Leu-Leu-His-Gln-Har-Ala-Lys( )-Trp-Leu-Asn-Asp( )-NH2] (H-[Ac6c]V[Aib]EIQLLHQ[hArg]AKWLND-NH2; lactam 13-17)	12.6	1.08 ± 0.06
CC[C@H](N)C(=O)N[C@H](C(=O)NC(C)(C)C(=O)N[C@@H](CCC(=O)O)C(=O)N[C@H](C(=O)N[C@@H](CCC(N)=O)C(=O)N[C@@H](CC(C)C)C(=O)N[C@@H](CC(C)C)C(=O)N[C@@H](Cc1c[nH]cn1)C(=O)N[C@@H](CCC(N)=O)C(=O)N[C@@H](CCCCNC(=N)N)C(=O)N[C@@H](C)C(=O)N[C@H]1CCCCNC(=O)C[C@@H](C(N)=O)NC(=O)[C@H](CC(N)=O)NC(=O)[C@H](CC(C)C)NC(=O)[C@H](Cc2c[nH]c3ccccc23)NC1=O)[C@@H](C)CC)C(C)C [SEQ ID NO: 11, H-Abu-Val-Aib-Glu-Ile-Gln-Leu-Leu-His-Gln-Har-Ala-Lys( )-Trp-Leu-Asn-Asp( )-NH2] (H-[Abu]V[Aib]EIQLLHQ[hArg]AKWLND-NH2; lactam 13-17)	67.6	1.04 ± 0.05
CCC[C@H](N)C(=O)N[C@H](C(=O)NC(C)(C)C(=O)N[C@@H](CCC(=O)O)C(=O)N[C@H](C(=O)N[C@@H](CCC(N)=O)C(=O)N[C@@H](CC(C)C)C(=O)N[C@@H](CC(C)C)C(=O)N[C@@H](Cc1c[nH]cn1)C(=O)N[C@@H](CCC(N)=O)C(=O)N[C@@H](CCCCNC(=N)N)C(=O)N[C@@H](C)C(=O)N[C@H]1CCCCNC(=O)C[C@@H](C(N)=O)NC(=O)[C@H](CC(N)=O)NC(=O)[C@H](CC(C)C)NC(=O)[C@H](Cc2c[nH]c3ccccc23)NC1=O)[C@@H](C)CC)C(C)C [SEQ ID NO: 12, H-Nva-Val-Aib-Glu-Ile-Gln-Leu-Leu-His-Gln-Har-Ala-Lys( )-Trp-Leu-Asn-Asp( )-NH2] (H-[Nva]V[Aib]EIQLLHQ[hArg]AKWLND-NH2; lactam 13-17)	102	1.04 ± 0.03
CC[C@H](C)[C@H](NC(=O)[C@H](CCC(=O)O)NC(=O)C1(NC(=O)[C@@H](NC(=O)C(C)(C)N)C(C)C)CCCC1)C(=O)N[C@@H](CCC(N)=O)C(=O)N[C@@H](CC(C)C)C(=O)N[C@@H](CC(C)C)C(=O)N[C@@H](Cc1c[nH]cn1)C(=O)N[C@@H](CCC(N)=O)C(=O)N[C@@H](CCCCNC(=N)N)C(=O)N[C@@H](C)C(=O)N[C@H]1CCCCNC(=O)C[C@@H](C(N)=O)NC(=O)[C@H](CC(N)=O)NC(=O)[C@H](CC(C)C)NC(=O)[C@H](Cc2c[nH]c3ccccc23)NC1=O [SEQ ID NO: 13, H-Aib-Val-Ac5c-Glu-Ile-Gln-Leu-Leu-His-Gln-Har-Ala-Lys( )-Trp-Leu-Asn-Asp( )-NH2] (H-[Aib]V[Ac5c]EIQLLHQ[hArg]AKWLND-NH2; lactam 13-17)	53.7	0.96 ± 0.03
CC[C@H](C)[C@H](NC(=O)[C@H](CCC(=O)O)NC(=O)C1(NC(=O)[C@@H](NC(=O)C2(N)CCCC2)C(C)C)CCCC1)C(=O)N[C@@H](CCC(N)=O)C(=O)N[C@@H](CC(C)C)C(=O)N[C@@H](CC(C)C)C(=O)N[C@@H](Cc1c[nH]cn1)C(=O)N[C@@H](CCC(N)=O)C(=O)N[C@@H](CCCCNC(=N)N)C(=O)N[C@@H](C)C(=O)N[C@H]1CCCCNC(=O)C[C@@H](C(N)=O)NC(=O)[C@H](CC(N)=O)NC(=O)[C@H](CC(C)C)NC(=O)[C@H](Cc2c[nH]c3ccccc23)NC1=O [SEQ ID NO: 14, H-Ac5c-Val-Ac5c-Glu-Ile-Gln-Leu-Leu-His-Gln-Har-Ala-Lys( )-Trp-Leu-Asn-Asp( )-NH2] (H-[Ac5c]V[Ac5c]EIQLLHQ[hArg]AKWLND-NH2; lactam 13-17)	35.5	1.03 ± 0.05

From patent publication US20100048462A1, “TRUNCATED PTH PEPTIDES WITH A CYCLIC CONFORMATION” (Zealand Pharma A/S, priority 2006, published 2010)
